Results reported in ChEMBL document CHEMBL1909046, “DrugMatrix in vitro pharmacology data”.

Key:
[1] = target: Epidermal growth factor receptor (Homo sapiens, UniProt P00533); assay: DRUGMATRIX: Protein Tyrosine Kinase, EGF Receptor enzyme inhibition (substrate: Poly(Glu:Tyr)); assay type: cell-based, Insect cells; settings: Not Active = under 50% inhibition at 10 µM
[2] = DRUGMATRIX: Tumor Necrosis Factor (TNF), Non-Selective radioligand binding (ligand: [125I] TNF-alpha); assay type: cell membranes, Membrane; settings: u-937; Not Active = under 50% inhibition at 10 µM
[3] = target: T1, Alpha-1A adrenergic receptor (Rattus norvegicus, UniProt P43140); assay: DRUGMATRIX: Alpha-1A adrenergic receptor radioligand binding (ligand: prazosin); assay type: cell membranes, Wistar, Submaxillary gland, Membrane; settings: Not Active = under 50% inhibition at 10 µM
T1 sequence (P43140 whole entry): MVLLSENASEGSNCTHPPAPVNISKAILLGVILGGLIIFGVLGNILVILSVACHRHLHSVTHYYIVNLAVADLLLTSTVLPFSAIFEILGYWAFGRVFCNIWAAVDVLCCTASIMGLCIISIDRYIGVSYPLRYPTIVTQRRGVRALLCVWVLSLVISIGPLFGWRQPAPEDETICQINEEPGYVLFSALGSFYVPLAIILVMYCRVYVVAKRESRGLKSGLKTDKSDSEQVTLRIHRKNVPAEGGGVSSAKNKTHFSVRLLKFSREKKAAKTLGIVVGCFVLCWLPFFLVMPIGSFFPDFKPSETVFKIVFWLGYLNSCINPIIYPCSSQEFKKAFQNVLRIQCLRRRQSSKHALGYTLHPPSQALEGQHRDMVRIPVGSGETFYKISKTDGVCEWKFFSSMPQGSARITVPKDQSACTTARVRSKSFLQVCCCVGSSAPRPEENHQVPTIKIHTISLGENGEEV

[4] = target: T2, Alpha-1B adrenergic receptor (Rattus norvegicus, UniProt P15823); assay: DRUGMATRIX: Alpha-1B adrenergic receptor radioligand binding (ligand: prazosin); assay type: cell membranes, Wistar, Liver, Membrane; settings: Not Active = under 50% inhibition at 10 µM
T2 sequence (P15823 whole entry): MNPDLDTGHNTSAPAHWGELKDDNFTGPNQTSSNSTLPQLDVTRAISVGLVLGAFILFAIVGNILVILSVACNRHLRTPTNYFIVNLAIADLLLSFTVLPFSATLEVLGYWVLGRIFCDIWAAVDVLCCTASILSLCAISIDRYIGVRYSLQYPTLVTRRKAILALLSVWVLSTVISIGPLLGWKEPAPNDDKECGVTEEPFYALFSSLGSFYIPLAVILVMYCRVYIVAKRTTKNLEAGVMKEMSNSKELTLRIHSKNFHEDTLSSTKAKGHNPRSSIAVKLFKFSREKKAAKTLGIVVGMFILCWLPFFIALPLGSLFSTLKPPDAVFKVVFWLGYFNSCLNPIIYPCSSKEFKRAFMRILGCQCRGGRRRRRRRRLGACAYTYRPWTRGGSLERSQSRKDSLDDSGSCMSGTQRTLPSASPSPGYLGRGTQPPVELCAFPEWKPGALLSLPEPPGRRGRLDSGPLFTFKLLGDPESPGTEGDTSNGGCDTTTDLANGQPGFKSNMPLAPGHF

[5] = target: C-C chemokine receptor type 5 (Homo sapiens, UniProt P51681); assay type: cell membranes, Membrane; settings: hek293; further: in other assays of this panel Not Active means under 50% inhibition at 10 µM
C-C chemokine receptor type 5, sequence (P51681 whole entry): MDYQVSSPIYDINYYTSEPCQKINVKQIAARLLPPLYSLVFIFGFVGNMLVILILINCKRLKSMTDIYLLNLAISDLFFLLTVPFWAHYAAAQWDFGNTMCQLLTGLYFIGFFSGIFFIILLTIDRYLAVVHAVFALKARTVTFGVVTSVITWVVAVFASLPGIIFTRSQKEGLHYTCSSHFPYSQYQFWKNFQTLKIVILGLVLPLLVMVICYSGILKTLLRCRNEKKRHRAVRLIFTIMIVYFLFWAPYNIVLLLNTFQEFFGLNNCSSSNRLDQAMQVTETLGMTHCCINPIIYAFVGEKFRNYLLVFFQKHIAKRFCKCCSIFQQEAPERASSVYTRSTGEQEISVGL

[6] = target: Vascular endothelial growth factor receptor 1 (Homo sapiens, UniProt P17948); assay: biochemical; assay type: cell-based, HUVEC; settings: huvec; further: in other assays of this panel Not Active means under 50% inhibition at 10 µM
Vascular endothelial growth factor receptor 1, sequence (P17948 whole entry): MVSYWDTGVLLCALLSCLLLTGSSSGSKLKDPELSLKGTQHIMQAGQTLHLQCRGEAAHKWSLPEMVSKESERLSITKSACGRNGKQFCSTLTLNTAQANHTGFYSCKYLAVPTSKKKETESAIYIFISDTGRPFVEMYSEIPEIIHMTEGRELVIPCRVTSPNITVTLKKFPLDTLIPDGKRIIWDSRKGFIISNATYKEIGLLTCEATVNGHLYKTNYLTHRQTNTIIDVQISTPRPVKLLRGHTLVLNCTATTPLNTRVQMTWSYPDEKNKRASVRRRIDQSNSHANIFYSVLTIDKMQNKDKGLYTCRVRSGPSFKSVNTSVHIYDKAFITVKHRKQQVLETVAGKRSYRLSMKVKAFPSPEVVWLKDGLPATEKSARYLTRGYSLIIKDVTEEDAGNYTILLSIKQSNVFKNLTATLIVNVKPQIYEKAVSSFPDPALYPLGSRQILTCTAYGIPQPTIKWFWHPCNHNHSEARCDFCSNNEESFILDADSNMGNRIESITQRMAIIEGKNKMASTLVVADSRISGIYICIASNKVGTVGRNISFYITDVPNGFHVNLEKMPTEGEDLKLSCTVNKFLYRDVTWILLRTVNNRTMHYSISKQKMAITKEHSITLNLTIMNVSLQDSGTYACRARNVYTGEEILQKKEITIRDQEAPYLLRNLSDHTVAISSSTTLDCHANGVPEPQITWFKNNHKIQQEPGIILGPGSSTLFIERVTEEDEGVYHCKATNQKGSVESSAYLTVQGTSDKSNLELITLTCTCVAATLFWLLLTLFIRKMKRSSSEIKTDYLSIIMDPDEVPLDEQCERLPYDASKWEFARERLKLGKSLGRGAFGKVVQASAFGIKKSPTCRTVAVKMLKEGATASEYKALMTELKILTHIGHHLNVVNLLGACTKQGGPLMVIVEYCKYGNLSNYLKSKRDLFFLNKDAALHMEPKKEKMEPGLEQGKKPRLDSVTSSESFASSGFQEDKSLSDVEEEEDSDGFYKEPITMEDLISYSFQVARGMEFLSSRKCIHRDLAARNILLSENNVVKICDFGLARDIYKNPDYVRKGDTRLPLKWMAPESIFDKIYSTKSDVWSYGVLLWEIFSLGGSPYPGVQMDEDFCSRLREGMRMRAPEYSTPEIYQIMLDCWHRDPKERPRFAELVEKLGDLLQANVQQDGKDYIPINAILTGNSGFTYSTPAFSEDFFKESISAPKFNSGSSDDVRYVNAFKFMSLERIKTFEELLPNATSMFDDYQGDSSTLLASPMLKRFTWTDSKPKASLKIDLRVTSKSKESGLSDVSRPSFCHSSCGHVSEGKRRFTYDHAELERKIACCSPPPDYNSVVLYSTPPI

[7] = target: T3, Amine oxidase [flavin-containing] A (Homo sapiens, UniProt P21397); assay: DRUGMATRIX: Monoamine Oxidase MAO-A enzyme inhibition (substrate: Kynuramine); parameters: species or system BTI-TN-5B1-4; settings: bti-tn-5b1-4; Not Active = under 50% inhibition at 10 µM
T3 sequence (P21397 whole entry): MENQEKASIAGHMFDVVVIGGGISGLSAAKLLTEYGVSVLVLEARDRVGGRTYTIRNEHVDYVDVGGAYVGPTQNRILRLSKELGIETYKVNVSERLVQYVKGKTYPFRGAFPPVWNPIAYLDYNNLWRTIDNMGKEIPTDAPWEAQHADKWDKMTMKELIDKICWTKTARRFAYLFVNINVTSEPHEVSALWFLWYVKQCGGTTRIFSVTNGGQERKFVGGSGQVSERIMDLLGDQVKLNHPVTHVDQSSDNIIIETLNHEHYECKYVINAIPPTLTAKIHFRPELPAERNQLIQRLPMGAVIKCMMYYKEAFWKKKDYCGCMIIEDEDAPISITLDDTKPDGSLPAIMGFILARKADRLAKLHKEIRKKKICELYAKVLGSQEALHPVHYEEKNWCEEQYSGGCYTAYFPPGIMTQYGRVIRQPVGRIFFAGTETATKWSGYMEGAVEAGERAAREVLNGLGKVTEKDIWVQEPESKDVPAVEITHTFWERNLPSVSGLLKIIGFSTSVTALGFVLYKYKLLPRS

Row | Compound | IC50 ([1]; insect cells) | Ki ([1]; insect cells) | IC50 [2] | Ki [2] | IC50 [3] | Ki [3] | IC50 [4] | Ki [4] | IC50 [5] | Ki [5] | IC50 [6] | Ki [6] | IC50 [7] | Ki [7] | IC50 ([1]; read-out: IC50) [nM] | IC50 ([4]; read-out: IC50) [nM] | Ki ([4]; read-out: Ki) [nM]
1 | THIMEROSAL | Not Active | Not Active | Not Active | Not Active | Not Active | Not Active | Not Active | Not Active | Not Active | Not Active | Not Active | Not Active | Not Active | Not Active |  |  | 
2 | C[C@]12CC[C@H]3[C@@H](CCC4=CC(=O)CC[C@@]43C)[C@@H]1CC[C@@H]2O [TESTOSTERONE] | Not Active |  | Not Active | Not Active | Not Active |  | Not Active |  | Not Active |  | Not Active |  | Not Active |  |  |  | 
3 | CNS(=O)(=O)Cc1ccc2[nH]cc(CCN(C)C)c2c1 | Not Active |  | Not Active | Not Active | Not Active |  | Not Active |  | Not Active |  | Not Active |  | Not Active |  |  |  | 
4 | CO[C@H]1C[C@@H]2CC[C@@H](C)[C@@](O)(O2)C(=O)C(=O)N2CCCC[C@H]2C(=O)O[C@H]([C@H](C)C[C@@H]2CC[C@@H](O)[C@H](OC)C2)CC(=O)[C@H](C)/C=C(\C)[C@@H](O)[C@@H](OC)C(=O)[C@H](C)C[C@H](C)/C=C/C=C/C=C/1C [SIROLIMUS] | Not Active |  | Not Active | Not Active | Not Active |  | Not Active |  | Not Active |  | Not Active |  | Not Active |  |  |  | 
5 | CN(CCOc1ccc(CC2SC(=O)NC2=O)cc1)c1ccccn1 (stereo unspecified) [ROSIGLITAZONE] | Not Active |  | Not Active | Not Active | Not Active |  | Not Active |  | Not Active |  | Not Active |  | Not Active |  |  |  | 
6 | C=C(C)[C@H]1Cc2c(ccc3c2O[C@@H]2COc4cc(OC)c(OC)cc4[C@@H]2C3=O)O1 [ROTENONE] | Not Active |  | Not Active | Not Active | Not Active |  | Not Active |  | Not Active |  | Not Active |  | Not Active |  |  |  | 
7 | Nc1ccc(S(=O)(=O)Nc2nccs2)cc1 [SULFATHIAZOLE] | Not Active |  | Not Active | Not Active | Not Active |  | Not Active |  | Not Active |  | Not Active |  | Not Active |  |  |  | 
8 | COc1ccc(CN2CCNCC2)c(OC)c1OC [TRIMETAZIDINE] | Not Active |  | Not Active | Not Active | Not Active |  | Not Active |  | Not Active |  | Not Active |  | Not Active |  |  |  | 
9 | COc1cc(C(=O)NS(=O)(=O)c2ccccc2C)ccc1Cc1cn(C)c2ccc(NC(=O)OC3CCCC3)cc12 [ZAFIRLUKAST] |  |  | Not Active | Not Active | Not Active |  | Not Active |  | Not Active |  | Not Active |  | Not Active |  | 5750 |  | 
10 | CCCc1nn(C)c2c(=O)[nH]c(-c3cc(S(=O)(=O)N4CCN(C)CC4)ccc3OCC)nc12 | Not Active |  | Not Active | Not Active | Not Active |  |  |  | Not Active |  | Not Active |  | Not Active |  |  | 1460 | 806
11 | CN[C@@H]1[C@H](O)[C@H](NC)[C@H]2O[C@@]3(O)C(=O)C[C@@H](C)O[C@H]3O[C@@H]2[C@H]1O [SPECTINOMYCIN] | Not Active |  | Not Active | Not Active | Not Active |  | Not Active |  | Not Active |  | Not Active |  | Not Active |  |  |  | 
12 | CC(C)(C)NC[C@H](O)COc1nsnc1N1CCOCC1 [TIMOLOL] | Not Active |  | Not Active | Not Active | Not Active |  | Not Active |  | Not Active |  | Not Active |  | Not Active |  |  |  | 
13 | O=P(O)(O)C(O)(Cc1cccnc1)P(=O)(O)O [RISEDRONIC ACID] | Not Active |  | Not Active | Not Active | Not Active |  | Not Active |  | Not Active |  | Not Active |  | Not Active |  |  |  | 
